{"source": "paper PMC7366380", "about": "“Discovery of a Potent and Selective Covalent Inhibitor and Activity-Based Probe for the Deubiquitylating Enzyme UCHL1, with Antifibrotic Activity” (Journal of the American Chemical Society, 2020)", "experiment_in_all_cases": "Quantitative chemical proteomic profiling of ABP 2 in HEK293 cells: other DUBs and proteins across the proteome", "key": {"[1]": {"target": "T1, DUBs and other proteins in HEK293 cells (Homo sapiens, UniProt P45974)", "T1 sequence (P45974 1-858)": "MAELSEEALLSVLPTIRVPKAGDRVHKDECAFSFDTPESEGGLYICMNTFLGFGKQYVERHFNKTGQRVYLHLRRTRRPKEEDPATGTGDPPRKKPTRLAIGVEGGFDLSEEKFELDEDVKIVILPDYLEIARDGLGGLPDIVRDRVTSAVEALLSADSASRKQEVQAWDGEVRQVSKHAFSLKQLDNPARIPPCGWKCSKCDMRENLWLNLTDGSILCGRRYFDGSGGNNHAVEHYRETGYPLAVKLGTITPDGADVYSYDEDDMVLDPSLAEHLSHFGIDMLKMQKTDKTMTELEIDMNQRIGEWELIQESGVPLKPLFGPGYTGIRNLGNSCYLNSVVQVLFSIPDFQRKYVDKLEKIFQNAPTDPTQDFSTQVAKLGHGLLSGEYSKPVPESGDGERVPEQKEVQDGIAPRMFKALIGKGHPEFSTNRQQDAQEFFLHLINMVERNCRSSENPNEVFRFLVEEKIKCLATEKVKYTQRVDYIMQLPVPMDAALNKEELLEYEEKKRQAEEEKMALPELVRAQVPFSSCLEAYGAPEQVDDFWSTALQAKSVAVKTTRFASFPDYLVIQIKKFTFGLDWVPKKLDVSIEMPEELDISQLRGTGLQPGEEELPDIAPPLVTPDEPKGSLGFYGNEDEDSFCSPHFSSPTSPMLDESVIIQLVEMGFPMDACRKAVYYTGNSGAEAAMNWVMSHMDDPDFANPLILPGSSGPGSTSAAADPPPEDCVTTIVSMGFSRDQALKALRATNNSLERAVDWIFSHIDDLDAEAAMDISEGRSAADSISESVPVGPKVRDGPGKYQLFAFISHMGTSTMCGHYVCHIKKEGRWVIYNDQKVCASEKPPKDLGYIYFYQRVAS", "settings": "USP5, listed as ABP 2"}, "[2]": {"target": "T2, DUBs and other proteins in HEK293 cells (Homo sapiens, UniProt Q53GS9)", "T2 sequence (Q53GS9 1-565)": "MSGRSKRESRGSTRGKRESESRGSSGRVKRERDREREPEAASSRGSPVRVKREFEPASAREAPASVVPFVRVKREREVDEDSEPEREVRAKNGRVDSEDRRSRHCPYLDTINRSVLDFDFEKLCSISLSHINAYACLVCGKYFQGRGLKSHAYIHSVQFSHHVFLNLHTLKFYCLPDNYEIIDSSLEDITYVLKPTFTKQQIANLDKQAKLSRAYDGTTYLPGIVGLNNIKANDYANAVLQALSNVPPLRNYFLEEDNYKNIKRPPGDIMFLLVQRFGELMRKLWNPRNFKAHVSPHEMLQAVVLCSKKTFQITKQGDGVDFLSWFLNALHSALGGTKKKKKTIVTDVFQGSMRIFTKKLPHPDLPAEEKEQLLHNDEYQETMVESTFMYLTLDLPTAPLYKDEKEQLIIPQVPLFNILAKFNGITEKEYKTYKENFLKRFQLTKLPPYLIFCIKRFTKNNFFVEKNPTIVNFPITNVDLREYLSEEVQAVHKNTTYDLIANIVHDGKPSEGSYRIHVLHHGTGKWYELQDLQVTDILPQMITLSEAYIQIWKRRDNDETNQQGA", "settings": "USP39"}, "[3]": {"target": "DUBs and other proteins in HEK293 cells (Homo sapiens, UniProt Q7L5N1)", "sequence (Q7L5N1 whole entry)": "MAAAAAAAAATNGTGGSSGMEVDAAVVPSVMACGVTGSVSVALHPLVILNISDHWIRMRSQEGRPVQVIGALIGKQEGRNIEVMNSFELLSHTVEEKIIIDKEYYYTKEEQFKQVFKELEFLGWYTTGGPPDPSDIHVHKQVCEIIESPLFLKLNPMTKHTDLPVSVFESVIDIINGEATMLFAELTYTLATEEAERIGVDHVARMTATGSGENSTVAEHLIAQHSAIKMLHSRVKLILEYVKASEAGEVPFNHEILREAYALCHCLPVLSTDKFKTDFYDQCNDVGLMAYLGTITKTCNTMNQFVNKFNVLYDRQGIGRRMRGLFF", "settings": "COPS6, listed as ABP 2"}, "[4]": {"target": "DUBs and other proteins in HEK293 cells (Homo sapiens, UniProt Q92905)", "sequence (Q92905 whole entry)": "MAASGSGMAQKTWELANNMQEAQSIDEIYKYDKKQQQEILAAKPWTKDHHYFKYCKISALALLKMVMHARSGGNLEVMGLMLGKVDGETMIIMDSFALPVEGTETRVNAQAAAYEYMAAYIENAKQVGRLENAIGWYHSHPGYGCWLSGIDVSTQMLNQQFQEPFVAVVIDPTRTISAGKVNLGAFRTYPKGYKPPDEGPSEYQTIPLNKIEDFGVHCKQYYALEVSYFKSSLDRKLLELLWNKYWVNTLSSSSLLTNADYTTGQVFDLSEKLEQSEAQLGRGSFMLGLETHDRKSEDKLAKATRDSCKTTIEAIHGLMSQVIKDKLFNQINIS", "settings": "COPS5, listed as ABP 2"}, "[5]": {"settings": "200 nM, 180 min, replicates A,C"}}, "note": "Several values for one entry are separate records, joined by “and”; a condition that tells them apart may be missing. Identical values can stand only once."}
{"smiles": "C#Cc1cnc2[nH]cc(-c3cccc4c3CCN4C(=O)[C@@H]3CCCN3C#N)c2c1", "note": "[Compound 2]", "values": [{"measurement": "Log2 reporter intensity values (Log2FC, DMSO substract)", "setting": "[1]; 2 nM, 60 min, replicates A-C", "result": "-0.1407 and 0.0289 and 0.1099"}, {"measurement": "Log2 reporter intensity values (Log2FC, DMSO substract)", "setting": "[1]; 20 nM, 10 min, replicates B,C", "result": 0.1281}, {"measurement": "Log2 reporter intensity values (Log2FC, DMSO substract)", "setting": "[1]; 20 nM, 60 min, replicates A-C", "result": "0.06053 and 0.195 and 0.2148"}, {"measurement": "Log2 reporter intensity values (Log2FC, DMSO substract)", "setting": "[1]; 20 nM, 180 min, replicates A-C", "result": "0.2725 and 0.06742 and 0.2092"}, {"measurement": "Log2 reporter intensity values (Log2FC, DMSO substract)", "setting": "[1]; 200 nM, 10 min, replicates B,C", "result": "0.2092 and 0.2483"}, {"measurement": "Log2 reporter intensity values (Log2FC, DMSO substract)", "setting": "[1]; 200 nM, 60 min, replicates A-C", "result": "0.08791 and 0.2394"}, {"measurement": "Log2 reporter intensity values (Log2FC, DMSO substract)", "setting": "[1]; [5]", "result": "0.2625 and 0.2347"}, {"measurement": "Log2 reporter intensity values (Log2FC, DMSO substract)", "setting": "[2]; 2 nM, 60 min, replicates A-C, listed as ABP 2", "result": "0.1489 and -0.6669"}, {"measurement": "Log2 reporter intensity values (Log2FC, DMSO substract)", "setting": "[2]; 20 nM, 10 min, replicates B,C", "result": 0.2437}, {"measurement": "Log2 reporter intensity values (Log2FC, DMSO substract)", "setting": "[2]; 20 nM, 60 min, replicates A-C, listed as ABP 2", "result": "0.1765 and 0.5295"}, {"measurement": "Log2 reporter intensity values (Log2FC, DMSO substract)", "setting": "[2]; 20 nM, 180 min, replicates A-C, listed as ABP 2", "result": "0.1037 and 0.2866"}, {"measurement": "Log2 reporter intensity values (Log2FC, DMSO substract)", "setting": "[2]; 200 nM, 10 min, replicates B,C", "result": 0.594}, {"measurement": "Log2 reporter intensity values (Log2FC, DMSO substract)", "setting": "[2]; 200 nM, 60 min, replicates A-C, listed as ABP 2", "result": "0.3986 and 0.5245"}, {"measurement": "Log2 reporter intensity values (Log2FC, DMSO substract)", "setting": "[2]; [5]", "result": 0.3314}, {"measurement": "Log2 reporter intensity values (Log2FC, DMSO substract)", "setting": "[3]; 2 nM, 60 min, replicates A-C", "result": "-0.04023 and 0.308"}, {"measurement": "Log2 reporter intensity values (Log2FC, DMSO substract)", "setting": "[3]; 20 nM, 10 min, replicates B,C", "result": "-0.278 and 0.05496"}, {"measurement": "Log2 reporter intensity values (Log2FC, DMSO substract)", "setting": "[3]; 20 nM, 60 min, replicates A-C", "result": "-0.132 and -0.1593 and 0.09464"}, {"measurement": "Log2 reporter intensity values (Log2FC, DMSO substract)", "setting": "[3]; 20 nM, 180 min, replicates A-C", "result": "-0.02381 and 0.4095 and -0.1139"}, {"measurement": "Log2 reporter intensity values (Log2FC, DMSO substract)", "setting": "[3]; 200 nM, 10 min, replicates B,C", "result": "0.1379 and -0.08033"}, {"measurement": "Log2 reporter intensity values (Log2FC, DMSO substract)", "setting": "[3]; 200 nM, 60 min, replicates A-C", "result": "0.1575 and 0.03437 and 0.12"}, {"measurement": "Log2 reporter intensity values (Log2FC, DMSO substract)", "setting": "[3]; [5]", "result": "0.2559 and 0.1548"}, {"measurement": "Log2 reporter intensity values (Log2FC, DMSO substract)", "setting": "[4]; 2 nM, 60 min, replicates A-C", "result": "-0.07206 and -0.06602 and 0.07642"}, {"measurement": "Log2 reporter intensity values (Log2FC, DMSO substract)", "setting": "[4]; 20 nM, 10 min, replicates B,C", "result": "-0.04991 and -0.07182"}, {"measurement": "Log2 reporter intensity values (Log2FC, DMSO substract)", "setting": "[4]; 20 nM, 60 min, replicates A-C", "result": "-0.1096 and -0.2324 and -0.02748"}, {"measurement": "Log2 reporter intensity values (Log2FC, DMSO substract)", "setting": "[4]; 20 nM, 180 min, replicates A-C", "result": "-0.1203 and -0.07618 and -0.1432"}, {"measurement": "Log2 reporter intensity values (Log2FC, DMSO substract)", "setting": "[4]; 200 nM, 10 min, replicates B,C", "result": "-0.09582 and 0.125"}, {"measurement": "Log2 reporter intensity values (Log2FC, DMSO substract)", "setting": "[4]; 200 nM, 60 min, replicates A-C", "result": "0.01523 and 0.2396 and 0.003556"}, {"measurement": "Log2 reporter intensity values (Log2FC, DMSO substract)", "setting": "[4]; [5]", "result": "0.05752 and -0.04833"}]}
